# Like-named read-outs stand apart in the source and are kept apart here.
# Tests used:
# G2019S LRRK2 = biological target: T1, G2019S LRRK2 (Homo sapiens, UniProt Q5S007, G2019S); test: LRRK2 degradation assay, HiBit-tagged G2019S LRRK2 expressed from plasmid in HEK293 cells (Nano-Glo Dual-Luciferase); type: cell-based; details: 24 hours
# T1 construct: expressed in transfected cells; host or cells: HEK293 (ATCC CRL-1573), transient transfection, mammalian expression vector with ubiquitin promoter
# T1 sequence (Q5S007 whole entry G2019S): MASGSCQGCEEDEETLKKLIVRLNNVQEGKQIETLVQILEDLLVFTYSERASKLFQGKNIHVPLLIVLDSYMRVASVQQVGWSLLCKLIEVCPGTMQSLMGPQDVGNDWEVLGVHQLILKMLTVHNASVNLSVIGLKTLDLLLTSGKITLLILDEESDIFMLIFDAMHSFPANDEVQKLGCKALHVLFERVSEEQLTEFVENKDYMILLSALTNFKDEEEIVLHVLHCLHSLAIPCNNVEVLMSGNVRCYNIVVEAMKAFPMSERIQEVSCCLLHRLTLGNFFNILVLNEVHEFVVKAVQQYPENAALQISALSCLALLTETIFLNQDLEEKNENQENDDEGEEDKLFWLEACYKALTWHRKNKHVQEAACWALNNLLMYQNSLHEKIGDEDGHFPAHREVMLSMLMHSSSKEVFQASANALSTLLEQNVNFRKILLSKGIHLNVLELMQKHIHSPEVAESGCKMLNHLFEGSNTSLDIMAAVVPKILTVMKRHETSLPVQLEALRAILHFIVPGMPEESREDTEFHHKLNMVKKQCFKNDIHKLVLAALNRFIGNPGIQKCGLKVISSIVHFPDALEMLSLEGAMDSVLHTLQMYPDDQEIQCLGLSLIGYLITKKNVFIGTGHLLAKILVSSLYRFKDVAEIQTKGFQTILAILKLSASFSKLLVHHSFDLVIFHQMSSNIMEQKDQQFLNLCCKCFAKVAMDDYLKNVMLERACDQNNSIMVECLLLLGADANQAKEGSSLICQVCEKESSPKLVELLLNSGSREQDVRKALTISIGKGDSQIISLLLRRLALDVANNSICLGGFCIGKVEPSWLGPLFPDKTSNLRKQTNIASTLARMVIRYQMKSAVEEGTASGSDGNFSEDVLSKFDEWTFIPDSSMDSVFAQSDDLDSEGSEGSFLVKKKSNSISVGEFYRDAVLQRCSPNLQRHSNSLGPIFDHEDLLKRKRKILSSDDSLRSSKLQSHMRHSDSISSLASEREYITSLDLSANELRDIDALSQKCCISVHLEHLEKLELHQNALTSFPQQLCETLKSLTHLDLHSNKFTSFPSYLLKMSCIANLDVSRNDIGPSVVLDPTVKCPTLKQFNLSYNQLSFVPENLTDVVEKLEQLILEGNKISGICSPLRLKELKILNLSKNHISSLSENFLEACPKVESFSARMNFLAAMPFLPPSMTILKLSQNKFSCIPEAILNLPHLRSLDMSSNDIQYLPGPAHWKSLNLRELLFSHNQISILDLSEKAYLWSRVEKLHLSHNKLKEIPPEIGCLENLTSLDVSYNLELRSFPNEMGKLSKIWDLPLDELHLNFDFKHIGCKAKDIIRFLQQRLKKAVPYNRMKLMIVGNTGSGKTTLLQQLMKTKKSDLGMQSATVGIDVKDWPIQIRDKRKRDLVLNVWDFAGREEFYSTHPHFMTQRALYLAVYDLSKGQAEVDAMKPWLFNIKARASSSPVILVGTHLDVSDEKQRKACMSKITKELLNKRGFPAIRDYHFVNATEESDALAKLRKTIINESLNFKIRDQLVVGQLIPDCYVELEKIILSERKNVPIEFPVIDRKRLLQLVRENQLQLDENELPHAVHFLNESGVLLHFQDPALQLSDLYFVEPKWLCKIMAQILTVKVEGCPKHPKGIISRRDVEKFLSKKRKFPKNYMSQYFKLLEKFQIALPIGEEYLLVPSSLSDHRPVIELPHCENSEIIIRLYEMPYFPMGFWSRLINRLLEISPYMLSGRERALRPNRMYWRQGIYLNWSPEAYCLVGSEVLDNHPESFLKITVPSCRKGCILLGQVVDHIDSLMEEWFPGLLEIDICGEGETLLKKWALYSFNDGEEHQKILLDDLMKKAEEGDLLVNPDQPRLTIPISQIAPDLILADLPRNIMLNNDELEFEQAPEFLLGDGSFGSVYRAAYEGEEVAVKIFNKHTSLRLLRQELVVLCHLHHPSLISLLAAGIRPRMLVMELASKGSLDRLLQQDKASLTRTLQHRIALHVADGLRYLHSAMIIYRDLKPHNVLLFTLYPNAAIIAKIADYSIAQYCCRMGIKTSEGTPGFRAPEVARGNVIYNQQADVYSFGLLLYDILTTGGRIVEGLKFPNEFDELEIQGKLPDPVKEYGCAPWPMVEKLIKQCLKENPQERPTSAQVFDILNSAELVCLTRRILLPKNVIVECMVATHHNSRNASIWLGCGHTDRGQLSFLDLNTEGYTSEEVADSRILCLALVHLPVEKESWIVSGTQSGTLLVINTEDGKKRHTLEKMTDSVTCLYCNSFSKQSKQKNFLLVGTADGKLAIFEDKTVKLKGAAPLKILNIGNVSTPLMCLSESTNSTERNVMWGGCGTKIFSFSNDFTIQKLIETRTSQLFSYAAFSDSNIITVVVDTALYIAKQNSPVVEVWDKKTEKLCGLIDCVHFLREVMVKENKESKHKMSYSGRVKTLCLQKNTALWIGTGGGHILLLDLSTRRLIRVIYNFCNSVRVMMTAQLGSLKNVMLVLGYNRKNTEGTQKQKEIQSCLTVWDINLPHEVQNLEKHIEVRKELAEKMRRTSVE
# From the text: (§1) Exemplary Assay for Testing LRRK2 Degradation Driven by Exemplary Hetero-Bifunctional Compounds Designed to Target LRRK2
# (§2) The assay measures the degradation of wildtype and G2019S LRRK2 tagged with a HiBit tag on the C-terminus of the protein that was expressed from a mammalian expression vector, driven by the ubiquitin promoter in HEK293 cells. Each compound dose-response was repeated on two separate days, on three separate plates each day.
# (§3) Plasmid Preparation. Transfection mixes were assembled as follows and incubated for 30 minutes at room temperature. In a 15 mL tube, 5.25 mL Opti-MEM (no additions) was mixed with 17 μL Firefly Luciferase plasmid at 1 μg/μL and 158 μL WT plasmid DNA at 1 μg/μL (175 μg total DNA) were mixed by flicking. In a new 15 mL tube, 5.25 mL OptiMEM was mixed with 17 μL Firefly Luciferase plasmid at 1 μg/μL and 158 μL G2019S plasmid DNA at 1 μg/μL (175 μg total DNA) were mixed by flicking. X-tremeGene HP was mixed thoroughly using a vortex. Next, 175 μL was added to each tube and flicked to mix. Both tubes were left to incubate for 30 minutes at room temperature.
# (§4) While the transfection mixes were incubating, HEK293 cells (acquired from ATCC; ATCC CRL-1573) were harvested with trypsin. Once cells are detached, the cells were resuspended in 12 mL OptiMEM+5% FBS and transferred to a 50 mL tube. The cells were mixed well and counted. Using OptiMEM+5% FBS, the cells were diluted in two 250 mL conical tubes at 0.71×10^6 cells/mL in 70 mL. One tube was labeled “WT” and the other “G2019S”. The WT and G2019S transfection mixes were added dropwise to the corresponding 250 mL tubes. The tubes were mixed first by pipetting then by swirling. The tubes were incubated at room temperature for at least 5 minutes.
# (§5) Each tube was swirled before dispensing and after every three plates. Seventy microliters of cells were dispensed with WT or G2019S DNA to seven plates each. Three plates of each were tested with compound plate one (preparation described below) and three plates of each were tested with compound plate two (preparation described below). The first plate from each set served as a “prime” plate and was not used to test compounds. Each plate was incubated in the hood for 10 minutes before placing in the 37° C. incubator for 24 hours.
# (§6) Preparation of Compound and Assay Plates. Two compound plates were made using 96 well polypropylene plates. Compounds were made up at 10 mM and were diluted to 1 mM in 30 μL. Each dose response curve included a well of DMSO, as a negative control and for normalization, and a well of 0.5 μM of Compound 4 as a positive control. In addition to seven test compounds, each plate also included a dose response of Compound 4. The compound plates were spun down along at 1200 rpm for 2 minutes.
# (§7) The two compound plates were then mixed and 2 μL was diluted in intermediate plates having 248 μL of Opti-Mem in each well. Next, 10 μL diluted compounds from the intermediate plates were added to each test plate (three WT and three G2019S plates per compound plate for a total of 12 assay plates). The plates were incubated for 24 hours at 37° C.
# (§8) All assay plates and all Nano-Glo Dual-Luciferase Reporter Assay System components (except for the DLR substrate) were equilibrated to room temperature. Next, the luciferase buffer was mixed with the lyophilized amber bottle until fully dissolved, and 75 μL of the luciferase mixture was added to each well of each assay plate. The assay plates were incubated for 10 minutes at room temperature with shaking for at least 5 minutes, and then read on a plate reader.
# (§9) Developing Plates and Analyzing Data. One milliliter of DLR substrate and 1 mL LgBiT Protein were added to the Stop and Glo buffer, and 75 μL of the mixture was added to each well of each plate. Optically clear seals were added to each plate and each plate was incubated for 20 minutes with shaking for at least 10 minutes, and then read on a plate reader. […]
# wildtype LRRK2 = biological target: T2, wildtype LRRK2 (Homo sapiens, UniProt Q5S007); test: LRRK2 degradation assay, HiBit-tagged wildtype LRRK2 expressed from plasmid in HEK293 cells (Nano-Glo Dual-Luciferase); type: cell-based; details: 24 hours; for Dmax: read-out: **WT Dmax (%); for DC50: read-out: *WT DC50
# T2 construct: expressed in transfected cells; host or cells: HEK293 (ATCC CRL-1573), transient transfection, mammalian expression vector with ubiquitin promoter
# T2 sequence (Q5S007 whole entry): as the sequence (Q5S007 whole entry G2019S) above, with S2019G counted along it
# From the text: as §1, §2, §3, §4, §5, §6, §7, §8, §9
# [1] = HiBit-tagged G2019S LRRK2 in HEK293 cells
# [2] = HiBit-tagged wildtype LRRK2 in HEK293 cells
# [3] = HiBit-tagged G2019S LRRK2, HEK293 cells
# [4] = HiBit-tagged wildtype LRRK2, HEK293 cells
SMILES,DC50 (G2019S LRRK2; [1]),Dmax (G2019S LRRK2; [1]),Dmax (wildtype LRRK2; [2]),DC50 (wildtype LRRK2; [2]),DC50 (G2019S LRRK2; [3]),Dmax (G2019S LRRK2; [3]),Dmax (wildtype LRRK2; [4]),DC50 (wildtype LRRK2; [4])
"CC1(Oc2ccc3[nH]nc(-c4cc(N5CCC(O[C@H]6C[C@H](OC7CCN(c8ccc9c(c8)C(=O)N(C8CCC(=O)NC8=O)C9=O)CC7)C6)CC5)ncn4)c3c2)CC1 (stereo partly drawn) [Compound 126, 2-(2,6-dioxo-3-piperidyl)-5-[4-[3-[[1-[6-[5-(1-methylcyclopropoxy)-1H-indazol-3-yl]pyrimidin-4-yl]-4-piperidyl]oxy]cyclobutoxy]-1-piperidyl]isoindoline-1,3-dione]",0.01 to 0.05 µM,< 50%,< 50%,0.01 to 0.05 µM,–,–,–,–
"CC1(Oc2ccc3[nH]nc(-c4cc(N5CC[C@@H](CN6CCN(CC7CCN(c8ccc9c(c8)C(=O)N(C8CCC(=O)NC8=O)C9=O)CC7)CC6)C5)ncn4)c3c2)CC1 (stereo partly drawn) [Compound 167, 2-(2,6-dioxo-3-piperidyl)-5-[4-[[4-[[(3S)-1-[6-[5-(1-methylcyclopropoxy)-1H-indazol-3-yl]pyrimidin-4-yl]pyrrolidin-3-yl]methyl]piperazin-1-yl]methyl]-1-piperidyl]isoindoline-1,3-dione]",–,–,–,–,< 0.01 µM,50 to 70%,50 to 70%,< 0.01 µM
"CC1(Oc2ccc3[nH]nc(-c4ccnc(N5CCOC6(CN(CC7CCN(CC8CCN(c9cccc%10c9C(=O)N(C9CCC(=O)NC9=O)C%10=O)CC8)CC7)C6)C5)c4)c3c2)CC1 (stereo not drawn) [Compound 144, 2-(2,6-dioxo-3-piperidyl)-4-[4-[[4-[[8-[4-[5-(1-methylcyclopropoxy)-1H-indazol-3-yl]-2-pyridyl]-5-oxa-2,8-diazaspiro[3.5]nonan-2-yl]methyl]-1-piperidyl]methyl]-1-piperidyl]isoindoline-1,3-dione]",0.01 to 0.05 µM,50 to 70%,50 to 70%,0.01 to 0.05 µM,–,–,–,–
"CC1(Oc2ccc3[nH]nc(-c4ccnc(N5CCN(C[C@H]6CC[C@H](CN7CCN(c8ccc9c(c8)C(=O)N(C8CCC(=O)NC8=O)C9=O)CC7)CC6)CC5)c4)c3c2)CC1 (stereo partly drawn) [Compound 102, 2-(2,6-dioxopiperidin-3-yl)-5-(4-{[(1r,4r)-4-[(4-{4-[5-(1-methylcyclopropoxy)-1H-indazol-3-yl]pyridin-2-yl}piperazin-1-yl)methyl]cyclohexyl]methyl}piperazin-1-yl)-2,3-dihydro-1H-isoindole-1,3-dione]",0.01 to 0.05 µM,< 50%,< 50%,0.01 to 0.05 µM,–,–,–,–
"CC1(Oc2ccc3[nH]nc(-c4cc(N5CCC(CN6CCN(CC7CCN(c8cccc9c8C(=O)N(C8CCC(=O)NC8=O)C9=O)CC7)CC6)CC5)ncn4)c3c2)CC1 (stereo not drawn) [Compound 146, 2-(2,6-dioxo-3-piperidyl)-4-[4-[[4-[[1-[6-[5-(1-methylcyclopropoxy)-2H-indazol-3-yl]pyrimidin-4-yl]-4-piperidyl]methyl]piperazin-1-yl]methyl]-1-piperidyl]isoindoline-1,3-dione]",–,–,50 to 70%,0.01 to 0.05 µM,–,–,–,–

# Now from value to molecule:
DC50 (G2019S LRRK2; [1]),Dmax (G2019S LRRK2; [1]),Dmax (wildtype LRRK2; [2]),DC50 (wildtype LRRK2; [2]),DC50 (G2019S LRRK2; [3]),Dmax (G2019S LRRK2; [3]),Dmax (wildtype LRRK2; [4]),DC50 (wildtype LRRK2; [4]),SMILES
< 0.01 µM,50 to 70%,50 to 70%,< 0.01 µM,–,–,–,–,"CC1(Oc2ccc3[nH]nc(-c4ccnc(N5CCC(CN6CCN(CC7CCN(c8ccc9c(c8)C(=O)N(C8CCC(=O)NC8=O)C9=O)CC7)CC6)CC5)c4)c3c2)CC1 (stereo not drawn) [Compound 78, 2-(2,6-dioxo-3-piperidyl)-5-[4-[[4-[[1-[4-[5-(1-methylcyclopropoxy)-1H-indazol-3-yl]-2-pyridyl]-4-piperidyl]methyl]piperazin-1-yl]methyl]-1-piperidyl]isoindoline-1,3-dione]"
< 0.01 µM,50 to 70%,50 to 70%,< 0.01 µM,–,–,–,–,"CC1(Oc2ccc3[nH]nc(-c4cc(N5CCN(CC(F)(F)C6CCN(CC7CCN(c8ccc9c(c8)C(=O)N(C8CCC(=O)NC8=O)C9=O)CC7)CC6)CC5)ncn4)c3c2)CC1 (stereo not drawn) [Compound 53, 5-[4-[[4-[1,1-difluoro-2-[4-[6-[5-(1-methylcyclopropoxy)-1H-indazol-3-yl]pyrimidin-4-yl]piperazin-1-yl]ethyl]-1-piperidyl]methyl]-1-piperidyl]-2-(2,6-dioxo-3-piperidyl)isoindoline-1,3-dione]"
< 0.01 µM,≥ 70%,≥ 70%,< 0.01 µM,–,–,–,–,"CC1(Oc2ccc3[nH]nc(-c4cc(N5CC(CN6CCN(CC7CCN(c8ccc9c(c8)C(=O)N(C8CCC(=O)NC8=O)C9=O)CC7)CC6)C5)ncn4)c3c2)CC1 (stereo not drawn) [Compound 129, 2-(2,6-dioxo-3-piperidyl)-5-[4-[[4-[[1-[6-[5-(1-methylcyclopropoxy)-1H-indazol-3-yl]pyrimidin-4-yl]azetidin-3-yl]methyl]piperazin-1-yl]methyl]-1-piperidyl]isoindoline-1,3-dione]"
< 0.01 µM,50 to 70%,50 to 70%,< 0.01 µM,–,–,–,–,"C[C@H]1CN(c2cc(-c3n[nH]c4ccc(OC5(C)CC5)cc34)ncn2)CCN1CC1CN(CC2CCN(c3ccc4c(c3)C(=O)N(C3CCC(=O)NC3=O)C4=O)CC2)C1 (stereo partly drawn) [Compound 122, 2-(2,6-dioxo-3-piperidyl)-5-[4-[[3-[[(2S)-2-methyl-4-[6-[5-(1-methylcyclopropoxy)-1H-indazol-3-yl]pyrimidin-4-yl]piperazin-1-yl]methyl]azetidin-1-yl]methyl]-1-piperidyl]isoindoline-1,3-dione]"
< 0.01 µM,50 to 70%,50 to 70%,< 0.01 µM,–,–,–,–,"CC1(Oc2ccc3[nH]nc(-c4ccnc(N5CCC(CN6CCN(C(=O)C7CCN(c8ccc9c(c8)C(=O)N(C8CCC(=O)NC8=O)C9=O)CC7)CC6)CC5)c4)c3c2)CC1 (stereo not drawn) [Compound 95, 2-(2,6-dioxopiperidin-3-yl)-5-(4-{4-[(1-{4-[5-(1-methylcyclopropoxy)-1H-indazol-3-yl]pyridin-2-yl}piperidin-4-yl)methyl]piperazine-1-carbonyl}piperidin-1-yl)-2,3-dihydro-1H-isoindole-1,3-dione]"
–,–,≥ 70%,< 0.01 µM,–,–,–,–,"C[C@H]1CN(c2cc(-c3n[nH]c4ccc(OC5(C)CC5)cc34)ncn2)CCN1C[C@H]1CCN(CC2CCN(c3ccc4c(c3)C(=O)N(C3CCC(=O)NC3=O)C4=O)CC2)C1 (stereo partly drawn) [Compound 111, 2-(2,6-dioxo-3-piperidyl)-5-[4-[[(3S)-3-[[(2S)-2-methyl-4-[6-[5-(1-methylcyclopropoxy)-1H-indazol-3-yl]pyrimidin-4-yl]piperazin-1-yl]methyl]pyrrolidin-1-yl]methyl]-1-piperidyl]isoindoline-1,3-dione]"
–,–,50 to 70%,< 0.01 µM,–,–,–,–,"CC1(Oc2ccc3[nH]nc(-c4cc(N5CCC(CN6CC[C@H](CN7CCN(c8ccc9c(c8)C(=O)N(C8CCC(=O)NC8=O)C9=O)CC7)C6)CC5)ncn4)c3c2)CC1 (stereo partly drawn) [Compound 114, 2-(2,6-dioxo-3-piperidyl)-5-[4-[[(3S)-1-[[1-[6-[5-(1-methylcyclopropoxy)-1H-indazol-3-yl]pyrimidin-4-yl]-4-piperidyl]methyl]pyrrolidin-3-yl]methyl]piperazin-1-yl]isoindoline-1,3-dione]"
